The Ki is the dissociation constant of the complex between target and ligand, obtained from inhibition or displacement. A word on the IC50: it is the concentration needed to halve the response being measured. A high value points to lower potency.

This passage reports Ki and IC50 results from patent US12649733B2, “3,6-diamino-pyridazin-3-yl derivatives, pharmaceutical compositions containing them and their uses as pro-apoptotic agents” (LES LABORATOIRES SERVIER, priority 2019, dated 2026).

For one test, the target named is T1, Bcl-xL protein (Homo sapiens, UniProt Q07817, N197C).
T1 construct: (2-197)[N197C]; His-His (two His8 stretches joined by a Gly/Ala/Ser/Thr linker)
T1 sequence (Q07817 2-197 N197C): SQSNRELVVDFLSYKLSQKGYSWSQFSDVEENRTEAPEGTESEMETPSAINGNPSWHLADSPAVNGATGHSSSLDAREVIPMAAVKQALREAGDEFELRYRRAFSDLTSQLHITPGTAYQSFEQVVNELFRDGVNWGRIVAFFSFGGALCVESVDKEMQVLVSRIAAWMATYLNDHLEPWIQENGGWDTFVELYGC
Briefly: Fluorescence quenching assay (PUMA peptide displacement). Particulars: 1 nM protein, 400 nM peptide, 2 hours at 23° C.; KI determined from IC50. Format: binding. From the text: Fluorescence quenching assay measures the change in fluorescence intensity of C-terminally Cy5-labeled BCL-xL protein, His-His-(EK)-hs ? (2-197)[N197C] (UniProtKB® primary accession number Q07817-1) having an amino acid sequence (SEQ ID:03): [[…] […] […] […] […]] which is linked in C-terminal region to the amino acid X which corresponds to a cysteine labeled on the sulfur with Sulfo-Cyanine5 from Lumiprobe GmbH catalogue number 13380, upon binding of a C-terminally labeled peptide derived from PUMA (UniProtKB® primary accession number Q9BXH1) having an aminoacid sequence (SEQ ID:04): [[…]] which is linked in C-terminal region to the amino acid X′ where X′ is cysteine labeled on the sulfur with TQ5WS from AAT Bioquest catalogue number 2079.
The addition of a compound which binds competitively to the same site as the peptide will result in an increase in the fluorescence intensity of the protein due to displacement of the fluorescence quencher.
An 11-point serial dilution of each compound was prepared in DMSO the final buffer conditions were 10 mM 4-(2-hydroxyethyl)-1-piperazineethanesulfonic acid [HEPES], 150 mM NaCl, 0.05% Tween 20, pH 7.4 and 5% DMSO. The final protein concentration in the assay was 1 nM with the peptide present at 400 nM. The experiments were incubated for 2 hours at 23° C. before fluorescence intensity was measured on a Biotek SynergyNeo plate reader (Excitation 620 nm, emission 680 nm). […] The KI values were determined from the IC50 values according to Cer et al, Nucleic Acids Res, 2009, Jul. 1: 37(WebServer issue): W441-W445.

For the next test, the system named is H146 cells. Nature of the test: H146 cell viability, MTT assay. In kind it is cell-based. Particulars: 48 h exposure. The method, boiled down: (§1)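 Viability read by MTT reduction (OD 540 nm after overnight SDS/HCl lysis) after 48 h compound treatment of cells in RPMI 1640/10% FBS. Triplicates at nine concentrations, 3.16-fold apart; four-parameter curve fitting yields IC50.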
(Tetrazolium assays rely on reduction of a dye to a coloured formazan, in cell work by metabolically active cells.)

The test system of a further test is MOLT-4 cells. Nature of the test: MOLT-4 cell viability, MTT assay. In kind it is cell-based. Particulars: 48 h exposure. In a few lines:
as §1

Where only a bound is given, the exact number is not on record here.

As for `Cc1cc(N(C)c2nc(C(=O)O)c(CCCOc3ccc(C#CC(C)N4CCOCC4)cc3F)s2)nnc1Nc1nc2ccccc2s1` (single isomer, unassigned) [Example 206, 2-[[6-(1,3-Benzothiazol-2-ylamino)-5-methyl-pyridazin-3-yl]-methyl-amino]-5-[3-[2-fluoro-4-((3R or 3S)-morpholinobut-1-ynyl)phenoxy]propyl]thiazole-4-carboxylic acid], the Ki at Bcl-xL protein came to 0.009 nM. For the same compound, the IC50 in the test with H146 cells is 15 nM; in the test with MOLT-4 cells (Homo sapiens, MOLT-4, 48 h), 1.48 nM.

As to `Cc1cc(N(C)c2nc(C(=O)O)c(CCCOc3ccc(C#CC(C)N4CCOCC4)cc3F)s2)nnc1Nc1nc2ccccc2s1` (single isomer, unassigned) [Example 208, 2-[[6-(1,3-Benzothiazol-2-ylamino)-5-methyl-pyridazin-3-yl]-methyl-amino]-5-[3-[2-fluoro-4-((3S or 3R)-morpholinobut-1-ynyl)phenoxy]propyl]thiazole-4-carboxylic acid], on Bcl-xL protein, the Ki is 0.0088 nM. The IC50 in the test with H146 cells is 7.33 nM; with MOLT-4 cells, 0.753 nM.

`Cc1cc(N(CCCCN2CCC(N)CC2)c2nc(C(=O)O)c(CCCOc3ccc(C#CCN(C)C)cc3F)s2)nnc1Nc1nc2ccccc2s1` [Example 175, 2-[4-(4-Amino-1-piperidyl)butyl-[6-(1,3-benzothiazol-2-ylamino)-5-methyl-pyridazin-3-yl]amino]-5-[3-[4-[3-(dimethylamino)prop-1-ynyl]-2-fluoro-phenoxy]propyl]thiazole-4-carboxylic acid]: the Ki at Bcl-xL protein stood at 0.0011 nM. The IC50 was found to be 75 nM in the test with H146 cells (Homo sapiens, NCI-H146, 48 h) and 204 nM with MOLT-4 cells (Homo sapiens, MOLT-4, 48 h).

Consider `CCN(CC)CCNCCCCN(c1cc(C)c(Nc2nc3ccccc3s2)nn1)c1nc(C(=O)O)c(CCCOc2ccc(C#CCN(C)C)cc2F)s1` [Example 176, 2-[[6-(1,3-Benzothiazol-2-ylamino)-5-methyl-pyridazin-3-yl]-[4-[2-(diethylamino)ethylamino]butyl]amino]-5-[3-[4-[3-(dimethylamino)prop-1-ynyl]-2-fluoro-phenoxy]propyl]thiazole-4-carboxylic acid], for which the Ki on Bcl-xL protein turned out to be 0.0011 nM. Further, the 50% inhibitory concentration (IC50) with H146 cells (Homo sapiens, NCI-H146, 48 h) was determined as 124 nM; in the test with MOLT-4 cells (Homo sapiens, MOLT-4, 48 h), 76.2 nM.

For the compound `Cc1cc(N(CCCCCN2CCC(N)CC2)c2nc(C(=O)O)c(CCCOc3ccc(C#CCN(C)C)cc3F)s2)nnc1Nc1nc2ccccc2s1` [Example 177, 2-[5-(4-Amino-1-piperidyl)pentyl-[6-(1,3-benzothiazol-2-ylamino)-5-methyl-pyridazin-3-yl]amino]-5-[3-[4-[3-(dimethylamino)prop-1-ynyl]-2-fluoro-phenoxy]propyl]thiazole-4-carboxylic acid], the Ki at Bcl-xL protein worked out at 0.003 nM. Moreover, the IC50 is 36.3 nM in the test with H146 cells (Homo sapiens, NCI-H146, 48 h) and 225 nM with MOLT-4 cells (Homo sapiens, MOLT-4, 48 h).

In the case of `CCN(CC)CCNCCCCCN(c1cc(C)c(Nc2nc3ccccc3s2)nn1)c1nc(C(=O)O)c(CCCOc2ccc(C#CCN(C)C)cc2F)s1` [Example 182, 2-[[6-(1,3-Benzothiazol-2-ylamino)-5-methyl-pyridazin-3-yl]-[5-[2-(diethylamino)ethylamino]pentyl]amino]-5-[3-[4-[3-(dimethylamino)prop-1-ynyl]-2-fluoro-phenoxy]propyl]thiazole-4-carboxylic acid], the Ki at Bcl-xL protein stood at 0.0074 nM. The IC50 was determined as 199 nM in the test with H146 cells (Homo sapiens, NCI-H146, 48 h) and 129 nM in the test on MOLT-4 cells (Homo sapiens, MOLT-4, 48 h).

Consider `COC(COc1ccc(C#CCN(C)C)cc1F)Cc1sc(N(C)c2cc(C)c(Nc3nc4ccccc4s3)nn2)nc1C(=O)O` (centres unmarked) [Example 183, 2-({6-[(1,3-Benzothiazol-2-yl)amino]-5-methylpyridazin-3-yl}(methyl)amino)-5-(3-{4-[3-(dimethylamino)prop-1-yn-1-yl]-2-fluorophenoxy}-2-methoxypropyl)-1,3-thiazole-4-carboxylic acid], for which the Ki on Bcl-xL protein stood at 0.0078 nM. Also, the IC50 was found to be 187 nM in the test on H146 cells (Homo sapiens, NCI-H146, 48 h) and 46.5 nM with MOLT-4 cells (Homo sapiens, MOLT-4, 48 h).

Turning to `Cc1cc(N(CCCCN2CCNCC2)c2nc(C(=O)O)c(CCCOc3ccc(C#CCN(C)C)cc3F)s2)nnc1Nc1nc2ccccc2s1` [Example 184, 2-[[6-(1,3-Benzothiazol-2-ylamino)-5-methyl-pyridazin-3-yl]-(4-piperazin-1-ylbutyl)amino]-5-[3-[4-[3-(dimethylamino)prop-1-ynyl]-2-fluoro-phenoxy]propyl]thiazole-4-carboxylic acid], the Ki on Bcl-xL protein was 0.0036 nM. Moreover, the IC50 with H146 cells (Homo sapiens, NCI-H146, 48 h) turned out to be 107 nM; with MOLT-4 cells (Homo sapiens, MOLT-4, 48 h), 184 nM.

As for `CNC/C=C/c1ccc(OCCCc2sc(N(CCCCO)c3cc(C)c(Nc4nc5ccccc5s4)nn3)nc2C(=O)O)c(F)c1` [Example 185, 2-[[6-(1,3-Benzothiazol-2-ylamino)-5-methyl-pyridazin-3-yl]-(4-hydroxybutyl)amino]-5-[3-[2-fluoro-4-[(E)-3-(methylamino)prop-1-enyl]phenoxy]propyl]thiazole-4-carboxylic acid], the Ki at Bcl-xL protein was found to be 0.0012 nM. Moreover, the IC50 in the test on H146 cells (Homo sapiens, NCI-H146, 48 h) turned out to be 7 nM; in the test with MOLT-4 cells (Homo sapiens, MOLT-4, 48 h), 16.8 nM.

In the case of `CNCCCc1ccc(OCCCc2sc(N(CCCCO)c3cc(C)c(Nc4nc5ccccc5s4)nn3)nc2C(=O)O)c(F)c1` [Example 186, 2-[[6-(1,3-Benzothiazol-2-ylamino)-5-methyl-pyridazin-3-yl]-(4-hydroxybutyl)amino]-5-[3-[2-fluoro-4-[3-(methylamino)propyl]phenoxy]propyl]thiazole-4-carboxylic acid], the Ki on Bcl-xL protein was 0.001 nM. The IC50 with H146 cells (Homo sapiens, NCI-H146, 48 h) worked out at 16.9 nM; with MOLT-4 cells (Homo sapiens, MOLT-4, 48 h), 85.3 nM.

On to `Cc1cc(N(CCCCCNCCN2CCCCC2)c2nc(C(=O)O)c(CCCOc3ccc(C#CCN(C)C)cc3F)s2)nnc1Nc1nc2ccccc2s1` [Example 187, 2-[[6-(1,3-Benzothiazol-2-ylamino)-5-methyl-pyridazin-3-yl]-[5-[2-(1-piperidyl)ethylamino]pentyl]amino]-5-[3-[4-[3-(dimethylamino)prop-1-ynyl]-2-fluoro-phenoxy]propyl]thiazole-4-carboxylic acid], for which the inhibition constant (Ki) on Bcl-xL protein was determined as 0.0025 nM. Besides, the IC50 in the test with H146 cells (Homo sapiens, NCI-H146, 48 h) came to 23400 nM; with MOLT-4 cells (Homo sapiens, MOLT-4, 48 h) it was 103 nM.

For `CNCCCCN(c1cc(C)c(Nc2nc3ccccc3s2)nn1)c1nc(C(=O)O)c(CCCOc2ccc(C#CCN(C)C)cc2F)s1` [Example 188, 2-[[6-(1,3-Benzothiazol-2-ylamino)-5-methyl-pyridazin-3-yl]-[4-(methylamino)butyl]amino]-5-[3-[4-[3-(dimethylamino)prop-1-ynyl]-2-fluoro-phenoxy]propyl]thiazole-4-carboxylic acid], the Ki on Bcl-xL protein came to 0.0018 nM. For the same compound, the IC50 in the test on H146 cells (Homo sapiens, NCI-H146, 48 h) worked out at 5.44 nM; in the test on MOLT-4 cells (Homo sapiens, MOLT-4, 48 h) it was 3410 nM.

As for `Cc1cc(N(CCCC(O)C[N+](C)(C)CCCS(=O)(=O)[O-])c2nc(C(=O)O)c(CCCOc3ccc(/C=C/C=O)cc3F)s2)nnc1Nc1nc2ccccc2s1` (centres unmarked) [Example 228, 3-[[5-[[6-(1,3-Benzothiazol-2-ylamino)-5-methyl-pyridazin-3-yl]-[4-carboxy-5-[3-[2-fluoro-4-[(E)-3-oxoprop-1-enyl]phenoxy]propyl]thiazol-2-yl]amino]-2-hydroxy-pentyl]-dimethyl-ammonio]propane-1-sulfonate], the inhibition constant (Ki) at Bcl-xL protein is 0.22 nM. The compound further had an IC50 in the test with H146 cells (Homo sapiens, NCI-H146, 48 h) greater than 30000 nM.
